# Laboratory results published in ChEMBL document CHEMBL1201862, “PubChem BioAssay data set” (2004).
#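 Five compound concentrations were applied to cells in 96-well plates for 48 hours; endpoints were derived by simple linear interpolation of the resulting dose-response curve. Here, GI50 denotes the concentration required for 50% inhibition of growth.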 Active and inactive are the calls of the source. Cut-off read from the data, not from the text of the source: active = GI50 up to about 1.1 µM and inactive = higher.
# How the values were obtained:
# Test in all cases: NCI anticancer screen, dose series, 48 h
# Malme-3M = system: Malme-3M
# 786-0 = system: 786-0
# EKVX = system: EKVX
# MOLT-4 = system: MOLT-4
# SF-295 = system: SF-295
# DU-145 = system: DU-145
# UO-31 = system: UO-31
# SF-268 = system: SF-268
# SNB-75 = system: SNB-75
# SR = system: SR
# UACC-257 = system: UACC-257
# A498 = system: A498
# HT-29 = system: HT-29
# A549 = system: A549
# SW-620 = system: SW-620
# SK-OV-3 = system: SK-OV-3
# TK-10 = system: TK-10
# MDA-MB-231 = system: MDA-MB-231
# SNB-19 = system: SNB-19
# UACC-62 = system: UACC-62
# OVCAR-5 = system: OVCAR-5
# NCI/ADR-RES = system: NCI/ADR-RES
# HCC 2998 = system: HCC 2998
# NCI-H23 = system: NCI-H23
# IGROV-1 = system: IGROV-1
# RPMI-8226 = system: RPMI-8226
# HCT-15 = system: HCT-15
# HL-60 = system: HL-60
# NCI-H226 = system: NCI-H226
# Hs-578T = system: Hs-578T
# COLO 205 = system: COLO 205
# MCF7 = system: MCF7
# MDA-N = system: MDA-N
# OVCAR-3 = system: OVCAR-3
# RXF 393 = system: RXF 393
# CAKI-1 = system: CAKI-1
# M14 = system: M14
# K562 = system: K562
# OVCAR-8 = system: OVCAR-8
# U-251 = system: U-251
# HCT-116 = system: HCT-116
# ACHN = system: ACHN
# SN12C = system: SN12C
# SK-MEL-28 = system: SK-MEL-28
# KM12 = system: KM12
# HOP-62 = system: HOP-62
# NCI-H460 = system: NCI-H460
# HOP-92 = system: HOP-92
# T47D = system: T47D
# SK-MEL-2 = system: SK-MEL-2
# LOX IMVI = system: LOX IMVI
# SF-539 = system: SF-539
# PC-3 = system: PC-3
# MDA-MB-435 = system: MDA-MB-435
# OVCAR-4 = system: OVCAR-4
# NCI-H522 = system: NCI-H522
# CCRF-CEM = system: CCRF-CEM
# SK-MEL-5 = system: SK-MEL-5
compound,measurement,setting,value
CSC(Cc1ccc2c(c1)Sc1ccccc1O2)=[N+]1CCOCC1,GI50,Malme-3M,26.4 µM (inactive)
same,GI50,786-0,88.9 µM (inactive)
same,GI50,EKVX,58.1 µM (inactive)
same,GI50,MOLT-4,35.7 µM (inactive)
same,GI50,SF-295,44.5 µM (inactive)
same,GI50,DU-145,> 100 µM (inactive)
same,GI50,UO-31,36.8 µM (inactive)
same,GI50,SF-268,61.2 µM (inactive)
same,GI50,SNB-75,32.4 µM (inactive)
same,GI50,SR,3.37 µM (inactive)
same,GI50,UACC-257,43 µM (inactive)
same,GI50,A498,46.5 µM (inactive)
same,GI50,HT-29,43.9 µM (inactive)
same,GI50,A549,63.8 µM (inactive)
same,GI50,SW-620,> 100 µM (inactive)
same,GI50,SK-OV-3,> 100 µM (inactive)
same,GI50,TK-10,> 100 µM (inactive)
same,GI50,MDA-MB-231,> 100 µM (inactive)
same,GI50,SNB-19,83.9 µM (inactive)
same,GI50,UACC-62,58.5 µM (inactive)
same,GI50,OVCAR-5,> 100 µM (inactive)
same,GI50,NCI/ADR-RES,56.8 µM (inactive)
same,GI50,HCC 2998,91.8 µM (inactive)
same,GI50,NCI-H23,40.7 µM (inactive)
same,GI50,IGROV-1,48.6 µM (inactive)
same,GI50,RPMI-8226,49.8 µM (inactive)
same,GI50,HCT-15,43.5 µM
same,GI50,HL-60,37.9 µM (inactive)
same,GI50,NCI-H226,55.8 µM (inactive)
same,GI50,Hs-578T,30.7 µM (inactive)
same,GI50,COLO 205,> 100 µM (inactive)
same,GI50,MCF7,40.2 µM (inactive)
same,GI50,MDA-N,54.5 µM (inactive)
same,GI50,OVCAR-3,52.6 µM (inactive)
same,GI50,RXF 393,37.6 µM (inactive)
same,GI50,CAKI-1,> 100 µM (inactive)
same,GI50,M14,72.9 µM (inactive)
same,GI50,K562,79.6 µM (inactive)
same,GI50,OVCAR-8,52.6 µM (inactive)
same,GI50,U-251,48.1 µM (inactive)
same,GI50,HCT-116,41.4 µM (inactive)
same,GI50,ACHN,58.3 µM (inactive)
same,GI50,SN12C,> 100 µM (inactive)
same,GI50,SK-MEL-28,80.7 µM (inactive)
same,GI50,KM12,51.4 µM (inactive)
same,GI50,HOP-62,> 100 µM (inactive)
same,GI50,NCI-H460,48.2 µM (inactive)
same,GI50,HOP-92,48.5 µM (inactive)
same,GI50,T47D,65.5 µM (inactive)
same,GI50,SK-MEL-2,> 100 µM (inactive)
same,GI50,LOX IMVI,80.4 µM (inactive)
same,GI50,SF-539,74.6 µM (inactive)
same,GI50,PC-3,44.7 µM (inactive)
same,GI50,MDA-MB-435,33 µM (inactive)
same,GI50,OVCAR-4,> 100 µM (inactive)
CCOC(=O)Cc1nnc2n(-c3ccccc3)c(=O)c3ccccc3n12,GI50,Malme-3M,> 100 µM (inactive)
same,GI50,786-0,> 100 µM (inactive)
same,GI50,NCI-H522,77.4 µM (inactive)
same,GI50,EKVX,> 100 µM (inactive)
same,GI50,MOLT-4,> 100 µM (inactive)
same,GI50,SF-295,> 100 µM (inactive)
same,GI50,DU-145,> 100 µM (inactive)
same,GI50,UO-31,> 100 µM (inactive)
same,GI50,SF-268,61.7 µM (inactive)
same,GI50,CCRF-CEM,> 100 µM (inactive)
same,GI50,SNB-75,43.9 µM (inactive)
same,GI50,SR,> 100 µM (inactive)
same,GI50,UACC-257,46.1 µM (inactive)
same,GI50,A498,> 100 µM (inactive)
same,GI50,HT-29,> 100 µM (inactive)
same,GI50,A549,> 100 µM (inactive)
same,GI50,SW-620,> 100 µM (inactive)
same,GI50,SK-MEL-5,> 100 µM (inactive)
same,GI50,SK-OV-3,> 100 µM (inactive)
same,GI50,TK-10,> 100 µM (inactive)
same,GI50,MDA-MB-231,> 100 µM (inactive)
same,GI50,SNB-19,74.8 µM (inactive)
same,GI50,UACC-62,44.3 µM (inactive)
same,GI50,OVCAR-5,> 100 µM (inactive)
same,GI50,NCI/ADR-RES,> 100 µM (inactive)
same,GI50,HCC 2998,> 100 µM (inactive)
same,GI50,NCI-H23,> 100 µM (inactive)
same,GI50,IGROV-1,> 100 µM (inactive)
same,GI50,HCT-15,> 100 µM
same,GI50,HL-60,> 100 µM (inactive)
same,GI50,NCI-H226,> 100 µM (inactive)
same,GI50,COLO 205,83.8 µM (inactive)
same,GI50,MCF7,> 100 µM (inactive)
same,GI50,MDA-N,> 100 µM (inactive)
same,GI50,OVCAR-3,> 100 µM (inactive)
same,GI50,RXF 393,> 100 µM (inactive)
same,GI50,CAKI-1,20.2 µM (inactive)
same,GI50,M14,> 100 µM (inactive)
same,GI50,K562,> 100 µM (inactive)
same,GI50,OVCAR-8,> 100 µM (inactive)
same,GI50,U-251,> 100 µM (inactive)
same,GI50,HCT-116,90.8 µM (inactive)
same,GI50,ACHN,> 100 µM (inactive)
same,GI50,SN12C,> 100 µM (inactive)
same,GI50,SK-MEL-28,55.7 µM (inactive)
same,GI50,KM12,> 100 µM (inactive)
same,GI50,HOP-62,62.4 µM (inactive)
same,GI50,NCI-H460,> 100 µM (inactive)
same,GI50,HOP-92,17.1 µM (inactive)
same,GI50,T47D,> 100 µM (inactive)
same,GI50,SK-MEL-2,41.6 µM (inactive)
same,GI50,LOX IMVI,> 100 µM (inactive)
same,GI50,SF-539,51.6 µM (inactive)
same,GI50,PC-3,34.5 µM (inactive)
same,GI50,MDA-MB-435,> 100 µM (inactive)
same,GI50,OVCAR-4,> 100 µM (inactive)
